Tests used:
Format in all cases: in vivo
sciatic nerve of rats [1] = test: First local anesthetic experiment of rats: blocking of sciatic nerve, motor function by hindlimb postural extensor thrust (PET)
Method: (§1) Selected above micelle, positive control lidocaine, and negative control normal saline were respectively administrated to 28 groups of test rats fully adapted to experiment environment, with five rats for each group. The administration dosage is: the concentration of lidocaine group being 2% aqueous solution (84 mmol/L), and the concentration of tested drug being 5 mmol/L. The injection volume of each rat receiving drugs or the control was 0.2 ml, and the drug or the control was injected to close to sciatic nerve of rats by guidance of nerve locator.
(§2) The tested rats were placed on bench board and allowed to inhale 5% isoflurane. After body-righting reflex abolition, rats are allowed to continue inhaling 1.5% isoflurane, to keep anesthesia. Keeping left-lateral position, their corresponding injection area sacrococygeal region was shaved, then routine sterilization and draping were performed. Two osseous anatomic landmarks greater trochanter of femur and tuber is chiadicum were laid hands, and the middle point of this line was the needle insertion position. If skin was taut, 1 ml injector was inserted along perpendicular of skin. When needlepoint reached hucklebone, the insertion was finished. […] Needle was lifted, and is oflurane was shut off. Animals were placed in observation cage until they naturally awakened.
(§3) The hindlimb postural extensor thrust (PET) was used for evaluation. Rats were lifted vertically and their hindlimbs of injection side stepped on the top of electronic balance. At this time, the postural extensor thrust was shown as the value of balance. When limbs were completely paralytic, the digital reading was the weight of limbs, about 20 g. If the test value was more than half of the difference between the baseline and the limbs weight, the motor function was taken as recovery; If less than or equal to half of the difference, the motor function was taken as deprivation.
(§4) The interval between completion of injection and the time point that the motor function was firstly deprivated was the time of effective motor blocking; the interval between completion of injection and the time point that the motor function was firstly recovered was the time of ineffective motor blocking; their difference was the hold time of motor blocking.

sciatic nerve of rats [2] = test: First local anesthetic experiment of rats: blocking of sciatic nerve, mechanical withdrawal threshold (VFH, von Frey filaments)
Method: as §1, §2
(§5) Rats were placed in transparent observation cages with a bottom of smooth metal sieve plate, and the corrected von frey filament was used to stimulate the foot lateral skin of rats (innervated region of sciatic nerve) from down to up. […] For each stimulation, slightly bent of filament was used as a standard, or rats moved aside this side of limbs. Otherwise, once the stimulation time reached 3 s, operator stopped stimulating. Three tests were carried out for each time point, and the interval between two tests was 5 min, to avoid sensibilization.
(§6) If the mechanical withdrawal threshold value was more than 60 g, the nerve blocking was considered as effective.

sciatic nerve of rats [3] = test: Third local anesthetic experiment of rats: hydrogels embedded near the sciatic nerve, mechanical withdrawal threshold (VFH)
Method: as §5, §6
(§7) 25 mmol/L transparent uniform hydrogels of products obtained in Examples 7-10 and 13-32 were prepared under sterile conditions, as the method of Example 45, and kept for use.
(§8) Above hydrogels, positive control lidocaine, and negative control normal saline were respectively administrated to 35 groups of test rats fully adapted to experiment environment, with five rats for each group. The administration dosage is: the concentration of lidocaine group being 2% aqueous solution (84 mmol/L). The injection volume of each rat receiving drugs or the control was […], and the control was injected to near the sciatic nerve of rats by guidance of nerve locator; by surgery, the gels were embedded near the sciatic nerve of experimental rats after general anesthesia using sevoflurane. Specific procedures and the evaluation criterion for local anesthetic effect were same as mentioned in Example 60.

sciatic nerve of rats [4] = test: Third local anesthetic experiment of rats: hydrogels embedded near the sciatic nerve, motor function (PET)
From the text: as §3, §4, §7, §8

[5] = rats, 0.2 ml injected close to sciatic nerve, tested drug 5 mmol/L solution (micelle), lidocaine 2% (84 mmol/L)
[6] = rats, 0.2 ml injected close to sciatic nerve, tested drug 5 mmol/L solution (micelle), lidocaine 2% (84 mmol/L), threshold above 60 g
[7] = rats, 0.2 ml injected close to sciatic nerve, tested drug 5 mmol/L solution (micelle), lidocaine 2% aqueous solution (84 mmol/L)
[8] = rats, 25 mmol/L hydrogel, 0.2 g embedded by surgery near sciatic nerve, lidocaine 2% (84 mmol/L) injected

SMILES | The hold time of motor blocking (sciatic nerve of rats [1]; rat, in vivo) [h] | Effective local anesthetic time (sciatic nerve of rats [2]; rat, in vivo) [min] | The hold time of sensation blocking (sciatic nerve of rats [2]; rat, in vivo) [h] | The hold time of motor blocking (sciatic nerve of rats [1]; [5]) [h] | The hold time of sensation blocking (sciatic nerve of rats [2]; [6]) [h] | Effective local anesthetic time (sciatic nerve of rats [2]; [7]) [min] | Effective local anesthetic time (sciatic nerve of rats [3]; [8]) [min] | The hold time of sensation blocking (sciatic nerve of rats [3]; [8]) [h] | The hold time of motor blocking (sciatic nerve of rats [4]; [8]) [h] | Effective local anesthetic time (sciatic nerve of rats [3]; rat, in vivo) [min] | The hold time of sensation blocking (sciatic nerve of rats [3]; rat, in vivo) [h] | The hold time of motor blocking (sciatic nerve of rats [4]; rat, in vivo) [h]
CCCC(=O)OC[N+](CC)(CC)CC(=O)Nc1c(C)cccc1C [Example4product] | 8 | 20 | 8 |  |  |  |  |  |  |  |  | 
CC[N+](CC)(COC(=O)C(C)(C)C)CC(=O)Nc1c(C)cccc1C [Example5product] | 8 | 18 | 8 |  |  |  |  |  |  |  |  | 
CC[N+](CC)(CCOC(C)=O)CC(=O)Nc1c(C)cccc1C [Example6product] |  |  |  | 72 | 72 | 20 |  |  |  |  |  | 
CCCCCCCCCCCC(=O)OCC[N+](CC)(CC)CC(=O)Nc1c(C)cccc1C [Example7product] |  |  |  | 70 | 75 | 20 | 60 | 90 | 80 |  |  | 
CCCCCCCCCCCCCCCC(=O)OCC[N+](CC)(CC)CC(=O)Nc1c(C)cccc1C [Example8product] |  |  |  | 70 | 73 | 18 | 70 | 92 | 82 |  |  | 
CCCCCCCCCCCC(=O)OCC[N+](CC)(CC)CC(=O)Nc1c(C)cccc1C [Example9product] | 80 | 20 | 80 |  |  |  |  |  |  | 75 | 98 | 80
CCCCCCCCCCCCCCCC(=O)OCC[N+](CC)(CC)CC(=O)Nc1c(C)cccc1C [Example10product] | 81 | 20 | 81 |  |  |  |  |  |  | 85 | 80 | 72
CCOC(=O)OCC[N+](CC)(CC)CC(=O)Nc1c(C)cccc1C [Example11product] | 82 | 20 | 82 |  |  |  |  |  |  |  |  | 
CCCCOC(=O)OCC[N+](CC)(CC)CC(=O)Nc1c(C)cccc1C [Example12product] | 80 | 20 | 80 |  |  |  |  |  |  |  |  | 
CCCCCCOC(=O)OCC[N+](CC)(CC)CC(=O)Nc1c(C)cccc1C [Example13product] | 79 | 19 | 79 |  |  |  |  |  |  | 45 | 80 | 76
CCCCCCCOC(=O)OCC[N+](CC)(CC)CC(=O)Nc1c(C)cccc1C [Example14product] | 70 | 15 | 82 |  |  |  |  |  |  | 45 | 81 | 76
CCCCCCCOC(=O)OCC[N+](CC)(CC)CC(=O)Nc1c(C)cccc1C [Example15product] | 66 | 17 | 81 |  |  |  |  |  |  | 53 | 81 | 79
CCCCCCCCOC(=O)OCC[N+](CC)(CC)CC(=O)Nc1c(C)cccc1C [Example16product] | 62 | 18 | 85 |  |  |  |  |  |  | 56 | 82 | 82
CCCCCCCCOC(=O)OCC[N+](CC)(CC)CC(=O)Nc1c(C)cccc1C [Example17product] | 62 | 16 | 82 |  |  |  |  |  |  | 63 | 85 | 82
CCCCCCCCCOC(=O)OCC[N+](CC)(CC)CC(=O)Nc1c(C)cccc1C [Example18product] | 60 | 16 | 88 |  |  |  |  |  |  | 60 | 83 | 79
CCCCCCCCCOC(=O)OCC[N+](CC)(CC)CC(=O)Nc1c(C)cccc1C [Example19product] | 56 | 16 | 82 |  |  |  |  |  |  | 65 | 90 | 88
CCCCCCCCCOC(=O)OCC[N+](CC)(CC)CC(=O)Nc1c(C)cccc1C [Example21product] |  |  |  | 60 | 82 | 18 | 75 | 88 | 79 |  |  | 
CCCCCCCCCOC(=O)OCC[N+](CC)(CC)CC(=O)Nc1c(C)cccc1C [Example22product] |  |  |  | 61 | 81 | 18 | 78 | 95 | 87 |  |  | 
CCCCCCCCCCOC(=O)OCC[N+](CC)(CC)CC(=O)Nc1c(C)cccc1C [Example23product] | 62 | 20 | 82 |  |  |  |  |  |  | 80 | 92 | 76
CCCCCCCCCCOC(=O)OCC[N+](CC)(CC)CC(=O)Nc1c(C)cccc1C [Example24product] | 75 | 20 | 82 |  |  |  |  |  |  | 78 | 87 | 79
CCCCCCCCCCCOC(=O)OCC[N+](CC)(CC)CC(=O)Nc1c(C)cccc1C [Example25product] | 80 | 20 | 81 |  |  |  |  |  |  | 82 | 83 | 79
CCCCCCCCCCCCOC(=O)OCC[N+](CC)(CC)CC(=O)Nc1c(C)cccc1C [Example26product] | 80 | 20 | 80 |  |  |  |  |  |  | 88 | 81 | 77
CCCCCCCCCCCCOC(=O)OCC[N+](CC)(CC)CC(=O)Nc1c(C)cccc1C [Example27product] | 80 | 20 | 78 |  |  |  |  |  |  | 90 | 83 | 76
CCCCCCCCCCCCCCOC(=O)OCC[N+](CC)(CC)CC(=O)Nc1c(C)cccc1C [Example28product] | 79 | 20 | 76 |  |  |  |  |  |  | 88 | 83 | 79
